Reference: patent US4477458A, “Thiazolidine derivatives and their mucolytic compositions and methods” (Camillo Corvi S.p.A., priority 1981, dated 1984)
Where a name gives a salt, the structure may show the parent alone.

Assays:
[1] = tested on: mucus production of rabbit; test: Activity on mucus production of rabbit (method of R. Scuri and Coll.); format: in vivo; conditions: for Mucoproduction at hours 0 - 4: mean ± E.S.; for change in vivo at 400 mg/kg / change in vivo at 600 mg/kg: po
gastric mucin of the pig = test: "in vitro" viscosity of gastric mucin of the pig (Contraves Rehomat microviscosimeter); conditions: conc. 2 %; for Viscosity of gastric mucin: 0.1 ml; for Viscosity of gastric mucin, Var. %: vs Mucin + H2O
Protocol: The pharmacological activity was measured by studying the effect on the compound (CO/1177) on: (c) "in vitro" viscosity of gastric mucin of the pig by using, for the viscometer measures, a Contraves Rehomat microviscosimeter at 15 automatic scanning speeds.

[2] = Oryctolagus cuniculus, iv, 10 mg/kg i.v., 0-4 h vs -4-0 h, read-out: Mucoproduction Var. %
[3] = Oryctolagus cuniculus, 400 mg/kg os, 0-4 h vs -4-0 h, read-out: Mucoproduction Var. %
[4] = Oryctolagus cuniculus, 600 mg/kg os, 0-4 h vs -4-0 h, read-out: Mucoproduction Var. %

O=C(O)c1ccccc1C(=O)N1CCSC1c1ccccc1 (centres unmarked) [CO/1220, 2-[(2-phenyl)-1,3-thiazolidin-3-yl]-carbonyl-benzoic acid (Na salt)]
Mucoproduction at hours 0 - 4 ([1]; 10 mg/kg i.v.): 31.300 ± 2.240 mg/h | change in vivo at 10 mg/kg [1, 2]: 43.5%

O=C(O)c1cccnc1C(=O)N1CCSC1 [CO/1242, 2-(1,3-thiazolidin-3-yl)-carbonyl-3-pyridine-carboxylic acid (Na salt)]
Mucoproduction at hours 0 - 4 ([1]; 10 mg/kg i.v.): 31.030 ± 2.840 mg/h | change in vivo at 10 mg/kg [1, 2]: 39%

N[C@@H](CSCC(=O)O)C(=O)O [S--Carboxymethylcysteine]
Mucoproduction at hours 0 - 4 ([1]; 400 mg/kg os): 35.339 ± 1.376 mg/h | Mucoproduction at hours 0 - 4 ([1]; 600 mg/kg os): 32.120 ± 1.630 mg/h | change in vivo at 400 mg/kg [1, 3]: 31.2% | change in vivo at 600 mg/kg [1, 4]: 34.2%

CC(S)C(=O)NCC(=O)O (racemic) [Mercaptopropionylglycine]
Mucoproduction at hours 0 - 4 ([1]; 10 mg/kg i.v.): 32.121 ± 1.013 mg/h | Mucoproduction at hours 0 - 4 ([1]; 20 mg/kg i.v.): 36.630 ± 1.565 mg/h | Mucoproduction at hours 0 - 4 ([1]; 400 mg/kg os): 32.053 ± 1.292 mg/h | Mucoproduction at hours 0 - 4 ([1]; 600 mg/kg os): 34.432 ± 1.813 mg/h | change in vivo at 10 mg/kg [1, 2]: 33.8% | change in vivo at 20 mg/kg ([1]; Oryctolagus cuniculus, iv, 20 mg/kg i.v., 0-4 h vs -4-0 h, read-out: Mucoproduction Var. %): 43% | change in vivo at 400 mg/kg [1, 3]: 45% | change in vivo at 600 mg/kg [1, 4]: 49.9%

CN(Cc1cc(Br)cc(Br)c1N)C1CCCCC1 [Bromexine]
Mucoproduction at hours 0 - 4 ([1]; 400 mg/kg os): 27.414 ± 1.071 mg/h | Mucoproduction at hours 0 - 4 ([1]; 600 mg/kg os): 34.440 ± 1.446 mg/h | change in vivo at 400 mg/kg [1, 3]: 31.3% | change in vivo at 600 mg/kg [1, 4]: 40.6%

CC1=CCC(CC2SCCN2C(=O)c2ccccc2C(=O)[O-])C1(C)C.[Na+] (centres unmarked) [CO/1178, 2-[(2-{2',2',3'-trimethyl-cyclopenten-3'yl}-methyl)-1,3-thiazolidin-3-yl]-carbonyl-benzoic acid, Na salt]
Mucoproduction Var. % ([1]; 10 mg/kg i.v., 0-4 h vs -4-0 h): +19.9% | Mucoproduction at hours 0 - 4 ([1]; 10 mg/kg i.v.): 26.890 ± 6.210 mg/h

CC(=O)N[C@@H](CS)C(=O)O [N--Acetylcysteine, reference compound]
Mucoproduction at hours 0 - 4 ([1]; 5 mg/kg i.v.): 29.058 ± 0.946 mg/h | Mucoproduction at hours 0 - 4 ([1]; 10 mg/kg i.v.): 30.988 ± 1.078 mg/h | Mucoproduction at hours 0 - 4 ([1]; 400 mg/kg os): 22.713 ± 0.947 mg/h | Mucoproduction at hours 0 - 4 ([1]; 600 mg/kg os): 32.512 ± 1.365 mg/h | change in vivo at 5 mg/kg ([1]; Oryctolagus cuniculus, iv, 5 mg/kg i.v., 0-4 h vs -4-0 h, read-out: Mucoproduction Var. %): 29.2% | change in vivo at 10 mg/kg [1, 2]: 49.8% | change in vivo at 400 mg/kg [1, 3]: 4.7% | change in vivo at 600 mg/kg [1, 4]: 39.4% | Viscosity of gastric mucin (gastric mucin of the pig; speed 17.4 g/min): 25.64 cps | Viscosity of gastric mucin (gastric mucin of the pig; speed 25 g/min): 25.20 cps | Viscosity of gastric mucin (gastric mucin of the pig; speed 33.6 g/min): 24.30 cps | Viscosity of gastric mucin (gastric mucin of the pig; speed 44.3 g/min): 23.32 cps | Viscosity of gastric mucin (gastric mucin of the pig; speed 56.1 g/min): 23.77 cps | Viscosity of gastric mucin (gastric mucin of the pig; speed 77.9 g/min): 20.30 cps | Viscosity of gastric mucin (gastric mucin of the pig; speed 113.2 g/min): 19.41 cps | Viscosity of gastric mucin (gastric mucin of the pig; speed 152 g/min): 17.94 cps | Viscosity of gastric mucin (gastric mucin of the pig; speed 200 g/min): 16.19 cps | Viscosity of gastric mucin (gastric mucin of the pig; speed 266.8 g/min): 14.52 cps | Viscosity of gastric mucin (gastric mucin of the pig; speed 352 g/min): 13.70 cps | Viscosity of gastric mucin, Var. % (gastric mucin of the pig; speed 17.4 g/min): -11.9% | Viscosity of gastric mucin, Var. % (gastric mucin of the pig; speed 25 g/min): -8.1% | Viscosity of gastric mucin, Var. % (gastric mucin of the pig; speed 44.3 g/min): -12.4% | Viscosity of gastric mucin, Var. % (gastric mucin of the pig; speed 56.1 g/min): -8.1% | Viscosity of gastric mucin, Var. % (gastric mucin of the pig; speed 77.9 g/min): -11.1% | Viscosity of gastric mucin, Var. % (gastric mucin of the pig; speed 113.2 g/min): -10.1% | Viscosity of gastric mucin, Var. % (gastric mucin of the pig; speed 152 g/min): -8% | Viscosity of gastric mucin, Var. % (gastric mucin of the pig; speed 200 g/min): -11.1% | Viscosity of gastric mucin, Var. % (gastric mucin of the pig; speed 266.8 g/min): -12.1% | Viscosity of gastric mucin, Var. % (gastric mucin of the pig; speed 352 g/min): -8.1%

CCCC1SCCN1C(=O)c1ccccc1C(=O)O (centres unmarked) [CO/1226, 2-[(2-propyl)-1,3-thiazolidin-3-yl]-carbonyl-benzoic acid (Na salt)]
Mucoproduction at hours 0 - 4 ([1]; 10 mg/kg i.v.): 29.730 ± 4.510 mg/h | change in vivo at 10 mg/kg [1, 2]: 26.9%
